# Laboratory results published in PubChem BioAssay (NCI).
#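 Interpolation was linear, between the two tested concentrations surrounding the appropriate level; five concentrations were tested over 48 hours in 96-well plates. GI50 = concentration required for 50% inhibition of growth. TGI denotes the concentration required for complete inhibition of growth.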
# Key:
# Test in all cases: NCI tumour cell line growth inhibition, 48 h
# DU-145 prostate = system: DU-145 prostate
# PC-3 prostate = system: PC-3 prostate
# T-47D breast = system: T-47D breast
# NCI-H460 lung = system: NCI-H460 lung
# EKVX NSCLC = system: EKVX NSCLC
# MOLT-4 leukemia = system: MOLT-4 leukemia
# COLO 205 colon = system: COLO 205 colon
# IGROV1 ovarian = system: IGROV1 ovarian
# CAKI-1 renal = system: CAKI-1 renal
# OVCAR-8 ovarian = system: OVCAR-8 ovarian
# NCI-H226 lung = system: NCI-H226 lung
# OVCAR-3 ovarian = system: OVCAR-3 ovarian
# NCI-H522 lung = system: NCI-H522 lung
# HT29 colon = system: HT29 colon
# M14 melanoma = system: M14 melanoma
# HOP-92 NSCLC = system: HOP-92 NSCLC
# UO-31 renal = system: UO-31 renal
# MALME-3M melanoma = system: MALME-3M melanoma
# SK-MEL-5 melanoma = system: SK-MEL-5 melanoma
# SNB-19 CNS = system: SNB-19 CNS
# OVCAR-5 ovarian = system: OVCAR-5 ovarian
# LOX IMVI melanoma = system: LOX IMVI melanoma
# RPMI-8226 leukemia = system: RPMI-8226 leukemia
# HOP-62 NSCLC = system: HOP-62 NSCLC
# 786-0 renal = system: 786-0 renal
# NCI-H23 lung = system: NCI-H23 lung
# SW-620 colon = system: SW-620 colon
# SK-OV-3 ovarian = system: SK-OV-3 ovarian
# ACHN renal = system: ACHN renal
# A498 renal = system: A498 renal
# MCF7 breast = system: MCF7 breast
# CCRF-CEM leukemia = system: CCRF-CEM leukemia
# RXF 393 renal = system: RXF 393 renal
# HS 578T breast = system: HS 578T breast
# HCT-15 colon = system: HCT-15 colon
# MDA-MB-231 breast = system: MDA-MB-231 breast
# SK-MEL-2 melanoma = system: SK-MEL-2 melanoma
# OVCAR-4 ovarian = system: OVCAR-4 ovarian
# U251 CNS = system: U251 CNS
# SF-268 CNS = system: SF-268 CNS
# SN12C renal = system: SN12C renal
# SNB-75 CNS = system: SNB-75 CNS
# UACC-257 melanoma = system: UACC-257 melanoma
# UACC-62 melanoma = system: UACC-62 melanoma
# TK-10 renal = system: TK-10 renal
# K-562 leukemia = system: K-562 leukemia
# MDA-N = system: MDA-N
# SF-539 CNS = system: SF-539 CNS
# NCI/ADR-RES ovarian = system: NCI/ADR-RES ovarian
# KM12 colon = system: KM12 colon
# BT-549 breast = system: BT-549 breast
# HCC-2998 colon = system: HCC-2998 colon
# SF-295 CNS = system: SF-295 CNS
# MDA-MB-435 = system: MDA-MB-435
# HCT-116 colon = system: HCT-116 colon
# A549 NSCLC = system: A549 NSCLC
# SK-MEL-28 melanoma = system: SK-MEL-28 melanoma
# HL-60(TB) leukemia = system: HL-60(TB) leukemia
structure (smiles),measurement,setting,value
O=C1C=CC(=O)C(CNc2ccc(C(=O)OC34CC5CC(CC(C5)C3)C4)cc2)=C1Br,TGI,DU-145 prostate,94.8 µM
same,TGI,PC-3 prostate,19 µM
same,TGI,T-47D breast,18.5 µM
same,TGI,NCI-H460 lung,29.4 µM
same,TGI,EKVX NSCLC,20.5 µM
same,TGI,MOLT-4 leukemia,25.5 µM
same,TGI,COLO 205 colon,24.1 µM
same,TGI,IGROV1 ovarian,15.6 µM
same,TGI,CAKI-1 renal,12.5 µM
same,TGI,OVCAR-8 ovarian,23.9 µM
same,TGI,NCI-H226 lung,32.4 µM
same,TGI,OVCAR-3 ovarian,39.4 µM
same,TGI,NCI-H522 lung,1.44 µM
same,TGI,HT29 colon,16.8 µM
same,TGI,M14 melanoma,60 µM
same,TGI,HOP-92 NSCLC,12.3 µM
same,TGI,UO-31 renal,21.2 µM
same,TGI,MALME-3M melanoma,15.5 µM
same,TGI,SK-MEL-5 melanoma,22 µM
same,TGI,SNB-19 CNS,35.4 µM
same,TGI,OVCAR-5 ovarian,38 µM
same,TGI,LOX IMVI melanoma,23.4 µM
same,TGI,RPMI-8226 leukemia,33.4 µM
same,TGI,HOP-62 NSCLC,62.2 µM
same,TGI,786-0 renal,28.3 µM
same,TGI,NCI-H23 lung,23.9 µM
same,TGI,SW-620 colon,68.1 µM
same,TGI,SK-OV-3 ovarian,34.2 µM
same,TGI,ACHN renal,28.4 µM
same,TGI,A498 renal,33.1 µM
same,TGI,MCF7 breast,48.1 µM
same,TGI,CCRF-CEM leukemia,7.41 µM
same,TGI,RXF 393 renal,17.5 µM
same,TGI,HS 578T breast,27.2 µM
same,TGI,HCT-15 colon,21.4 µM
same,TGI,MDA-MB-231 breast,24.3 µM
same,TGI,SK-MEL-2 melanoma,38.2 µM
same,TGI,OVCAR-4 ovarian,22.6 µM
same,TGI,U251 CNS,38.2 µM
same,TGI,SF-268 CNS,27.4 µM
same,TGI,SN12C renal,34.1 µM
same,TGI,SNB-75 CNS,19.7 µM
same,TGI,UACC-257 melanoma,29.1 µM
same,TGI,UACC-62 melanoma,21.6 µM
same,TGI,TK-10 renal,28.6 µM
same,TGI,K-562 leukemia,32.7 µM
same,TGI,MDA-N,33 µM
same,TGI,SF-539 CNS,5.6 µM
same,TGI,NCI/ADR-RES ovarian,18.4 µM
same,TGI,KM12 colon,19.7 µM
same,TGI,BT-549 breast,20.5 µM
same,TGI,HCC-2998 colon,28.3 µM
same,TGI,SF-295 CNS,33.5 µM
same,TGI,MDA-MB-435,65.5 µM
same,TGI,HCT-116 colon,27.1 µM
same,TGI,A549 NSCLC,49.3 µM
O=c1cc(-c2ccc3ccccc3c2)[nH]c2ncc(Cl)cc12,TGI,DU-145 prostate,> 100 µM
same,GI50,PC-3 prostate,3.1 µM
same,TGI,PC-3 prostate,29.1 µM
same,TGI,SK-MEL-28 melanoma,> 100 µM
same,TGI,T-47D breast,> 100 µM
same,GI50,NCI-H460 lung,4.12 µM
same,TGI,NCI-H460 lung,> 100 µM
same,TGI,EKVX NSCLC,> 100 µM
same,TGI,MOLT-4 leukemia,> 100 µM
same,TGI,COLO 205 colon,21.8 µM
same,TGI,IGROV1 ovarian,> 100 µM
same,GI50,CAKI-1 renal,7.58 µM
same,TGI,CAKI-1 renal,> 100 µM
same,TGI,OVCAR-8 ovarian,22.9 µM
same,TGI,NCI-H226 lung,> 100 µM
same,GI50,OVCAR-3 ovarian,2.65 µM
same,TGI,OVCAR-3 ovarian,7.81 µM
same,TGI,NCI-H522 lung,36.8 µM
same,TGI,HT29 colon,> 100 µM
same,TGI,M14 melanoma,> 100 µM
same,TGI,HOP-92 NSCLC,38.1 µM
same,TGI,UO-31 renal,> 100 µM
same,TGI,MALME-3M melanoma,44.1 µM
same,GI50,SK-MEL-5 melanoma,2.98 µM
same,TGI,SK-MEL-5 melanoma,> 100 µM
same,TGI,SNB-19 CNS,51.2 µM
same,TGI,OVCAR-5 ovarian,> 100 µM
same,TGI,LOX IMVI melanoma,> 100 µM
same,TGI,RPMI-8226 leukemia,24.5 µM
same,TGI,HOP-62 NSCLC,29.6 µM
same,TGI,786-0 renal,16.8 µM
same,TGI,NCI-H23 lung,57 µM
same,TGI,SW-620 colon,> 100 µM
same,TGI,SK-OV-3 ovarian,34.4 µM
same,TGI,ACHN renal,> 100 µM
same,TGI,A498 renal,43.1 µM
same,TGI,MCF7 breast,> 100 µM
same,TGI,CCRF-CEM leukemia,56.8 µM
same,TGI,HS 578T breast,70.8 µM
same,TGI,HCT-15 colon,> 100 µM
same,TGI,MDA-MB-231 breast,56.2 µM
same,TGI,SK-MEL-2 melanoma,45.1 µM
same,TGI,OVCAR-4 ovarian,> 100 µM
same,GI50,U251 CNS,4.74 µM
same,TGI,U251 CNS,46.1 µM
same,TGI,SF-268 CNS,34.4 µM
same,TGI,SN12C renal,> 100 µM
same,TGI,SNB-75 CNS,9.96 µM
same,TGI,UACC-257 melanoma,> 100 µM
same,TGI,UACC-62 melanoma,> 100 µM
same,TGI,TK-10 renal,45.6 µM
same,TGI,K-562 leukemia,> 100 µM
same,GI50,MDA-N,1.55 µM
same,TGI,MDA-N,5.45 µM
same,TGI,SF-539 CNS,56.5 µM
same,TGI,NCI/ADR-RES ovarian,> 100 µM
same,TGI,KM12 colon,> 100 µM
same,TGI,BT-549 breast,> 100 µM
same,TGI,HCC-2998 colon,> 100 µM
same,GI50,SF-295 CNS,5.44 µM
same,TGI,SF-295 CNS,29 µM
same,GI50,MDA-MB-435,0.846 µM
same,TGI,MDA-MB-435,2.76 µM
same,GI50,HCT-116 colon,3.98 µM
same,TGI,HCT-116 colon,> 100 µM
same,GI50,HL-60(TB) leukemia,1.78 µM
same,TGI,HL-60(TB) leukemia,3.96 µM
same,TGI,A549 NSCLC,> 100 µM
CCOC(=O)[C@H]1O[C@@H]1C(=O)NC(CC(C)C)C(=O)NCCC(C)C (stereo partly specified),TGI,DU-145 prostate,> 100 µM
same,TGI,PC-3 prostate,> 100 µM
same,TGI,SK-MEL-28 melanoma,> 100 µM
same,TGI,T-47D breast,> 100 µM
same,TGI,NCI-H460 lung,> 100 µM
same,TGI,EKVX NSCLC,> 100 µM
same,TGI,MOLT-4 leukemia,> 100 µM
same,TGI,COLO 205 colon,> 100 µM
same,TGI,IGROV1 ovarian,> 100 µM
same,TGI,CAKI-1 renal,> 100 µM
same,TGI,OVCAR-8 ovarian,> 100 µM
same,TGI,NCI-H226 lung,> 100 µM
same,TGI,OVCAR-3 ovarian,> 100 µM
same,TGI,NCI-H522 lung,> 100 µM
same,TGI,HT29 colon,> 100 µM
same,TGI,M14 melanoma,> 100 µM
same,TGI,HOP-92 NSCLC,> 100 µM
same,TGI,UO-31 renal,> 100 µM
same,TGI,MALME-3M melanoma,> 100 µM
same,TGI,SK-MEL-5 melanoma,> 100 µM
same,TGI,SNB-19 CNS,> 100 µM
same,TGI,OVCAR-5 ovarian,> 100 µM
same,TGI,RPMI-8226 leukemia,> 100 µM
same,TGI,HOP-62 NSCLC,> 100 µM
same,TGI,786-0 renal,> 100 µM
same,TGI,NCI-H23 lung,> 100 µM
same,TGI,SW-620 colon,> 100 µM
same,TGI,SK-OV-3 ovarian,> 100 µM
same,TGI,A498 renal,> 100 µM
same,TGI,MCF7 breast,> 100 µM
same,TGI,CCRF-CEM leukemia,> 100 µM
same,TGI,HS 578T breast,> 100 µM
same,TGI,HCT-15 colon,> 100 µM
same,TGI,MDA-MB-231 breast,> 100 µM
same,TGI,OVCAR-4 ovarian,> 100 µM
same,TGI,U251 CNS,> 100 µM
same,TGI,SF-268 CNS,> 100 µM
same,TGI,SN12C renal,> 100 µM
same,TGI,SNB-75 CNS,> 100 µM
same,TGI,UACC-257 melanoma,> 100 µM
same,TGI,UACC-62 melanoma,> 100 µM
same,TGI,K-562 leukemia,> 100 µM
same,TGI,MDA-N,> 100 µM
same,TGI,SF-539 CNS,> 100 µM
same,TGI,NCI/ADR-RES ovarian,> 100 µM
same,TGI,KM12 colon,> 100 µM
same,TGI,BT-549 breast,> 100 µM
same,TGI,HCC-2998 colon,> 100 µM
same,TGI,SF-295 CNS,> 100 µM
same,TGI,MDA-MB-435,> 100 µM
same,TGI,HCT-116 colon,> 100 µM
same,TGI,A549 NSCLC,> 100 µM
